Source: US20170119742A1, “MEDICAMENT FOR PREVENTING AND/OR TREATING STRESS DISEASES” (ONO PHARMACEUTICAL CO., LTD., priority 2014, published 2017)

What was measured:
[1] = test system: fear conditioning stress rats; experiment: Antianxiety effect (1): freezing time in fear conditioning stress rats; format: in vivo; details: rat, 1 and 3 mg/kg oral, 2 h before 30 min stress load, Dunnett test
Excerpt: Male Crj: CD (SD) rats (Charles River Laboratories Japan, Inc., at the time of evaluation: 8 weeks old) were used to load conditioned fear stress in accordance with Funatsu et al. method (European Journal of Pharmacology, Vol. 573, p. 190-195, 2007). The day before of fear conditioning, the rat was put in an electric shock device which was placed in a soundproof box to acclimate to the evaluation environment. The day of fear conditioning, the rat was put in the electric shock device. The conditioning, 5 seconds electric current load (2.0 mA) and light irradiation (3 pieces of 40 W fluorescent bulbs) followed by 3 seconds warning sound (60 to 70 db), was carried out a total 15 times at 1 minute intervals. The rat of the non-stressed group was given a warning sound and light irradiation without performing the electric current load during fear conditioning. The day after the fear conditioning, the vehicle (0.5 w/v % methylcellulose 400 cP solution) or the compound of the present invention (0.3, 1 or 3 mg/kg) was orally administered to the rat. Two hours after the administration, the rat was put in the electric shock device. […] The behavior of the rat was photographed with a video camera during the 30 minutes of stress load and freezing time was measured.

brain TSPO = biological target: T1, brain TSPO (Homo sapiens, UniProt P30536); experiment: Prediction of brain TSPO occupancy in steady state, once daily in humans (Biological example 8); details: for ROmax (%) Predicted 5 percentile / ROmax (%) Predicted 95 percentile / ROmax (%) Predicted median: maximum brain TSPO occupancy; for ROmin (%) Predicted 5 percentile / ROmin (%) Predicted 95 percentile / ROmin (%) Predicted median: minimum brain TSPO occupancy
T1 construct: from tissue; host or cells: living human brain (PET, healthy adults)
T1 sequence (P30536 whole entry): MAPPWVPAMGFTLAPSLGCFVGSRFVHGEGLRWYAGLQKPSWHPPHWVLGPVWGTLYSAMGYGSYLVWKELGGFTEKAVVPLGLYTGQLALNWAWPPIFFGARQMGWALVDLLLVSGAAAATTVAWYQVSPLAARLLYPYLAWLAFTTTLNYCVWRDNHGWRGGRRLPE
Excerpt: Further, a transition in the plasma concentration of the compound of the present invention, in a steady state when administered once daily, was predicted. And brain TSPO occupancy was predicted by using the relationship between plasma concentration and brain TSPO occupancy that shown in FIG. 5.

[2] = test system: olfactory bulb isolated rats; experiment: Antidepressant effect: excessive emotional reactivity in olfactory bulb isolated rats; format: in vivo; details: rat, 0.3, 1 and 3 mg/kg oral once daily, before and after administration on day 7, p<0.01 Steel test
Excerpt: Male Crlj: WI rats (Charles River Laboratories Japan, Inc., at the time of surgery: 11 weeks old) were used to prepare an olfactory bulb isolated rat in accordance with Yamaguchi et al. method (Journal of the Pharmaceutical Society of Japan, Vol. 130, p. 175-183, 2007). The head of the anesthetized rat with pentobarbital sodium was fixed to brain stereotaxic apparatus (ASI Instruments Inc., NARISHIGE). After incising the scalp, holes to the left and right olfactory bulb region of the skull (7 mm forward and 1.8 mm laterally from bregma) were made with a dental drill. After aspirating and removing the left and right olfactory bulb by an aspirator coupled to an oral sonde which except for the tip, scalp was sutured. […] After 14 days of surgery, the excessive emotional reactivity was evaluated in accordance with the method of Gomita et al. (Journal of the Pharmaceutical Society of Japan, Vol. 82, p. 267-292, 1983). […]
A vehicle (physiological saline solution containing 0.5% Tween 80) or the compound of the present invention (0.3, 1 or 3 mg/kg) was orally administered to the olfactory bulb isolated rat repeatedly once daily for 8 days. […] On day 7, the excessive emotional reactivity was evaluated before and 1 hour after the administration.

## COc1cc(Cl)ccc1[C@H]1c2[nH]c3cccc(F)c3c2C2(CC2)CN1C(C)=O [the compound of the present invention, (1S)-2-acetyl-1-(4-chloro-2-methoxyphenyl)-5-fluoro-1,2,3,9-tetrahydrospiro[β-carboline-4,1′-cyclopropane]]
[1]
  freezing time vs. vehicle control group: shortened this extended freezing time significantly
Brain TSPO; dose 1 mg
  ROmax (%) Predicted 5 percentile: 28.3%
  ROmax (%) Predicted 95 percentile: 48.8%
  ROmax (%) Predicted median: 38.4%
  ROmin (%) Predicted 5 percentile: 11.5%
  ROmin (%) Predicted 95 percentile: 30.5%
  ROmin (%) Predicted median: 19.4%
Brain TSPO; dose 5 mg
  ROmax (%) Predicted 5 percentile: 60.5%
  ROmax (%) Predicted 95 percentile: 84.6%
  ROmax (%) Predicted median: 72.0%
  ROmin (%) Predicted 5 percentile: 38.0%
  ROmin (%) Predicted 95 percentile: 67.7%
  ROmin (%) Predicted median: 52.5%
Brain TSPO; dose 10 mg
  ROmax (%) Predicted 5 percentile: 69.6%
  ROmax (%) Predicted 95 percentile: 94.2%
  ROmax (%) Predicted median: 80.9%
  ROmin (%) Predicted 5 percentile: 52.8%
  ROmin (%) Predicted 95 percentile: 81.0%
  ROmin (%) Predicted median: 67.1%
Brain TSPO; dose 20 mg
  ROmax (%) Predicted 5 percentile: 75.1%
  ROmax (%) Predicted 95 percentile: 100.0%
  ROmax (%) Predicted median: 86.4%
  ROmin (%) Predicted 5 percentile: 64.6%
  ROmin (%) Predicted 95 percentile: 91.5%
  ROmin (%) Predicted median: 77.6%
Brain TSPO; dose 30 mg
  ROmax (%) Predicted 5 percentile: 77.0%
  ROmax (%) Predicted 95 percentile: 102.6%
  ROmax (%) Predicted median: 88.5%
  ROmin (%) Predicted 5 percentile: 69.7%
  ROmin (%) Predicted 95 percentile: 94.9%
  ROmin (%) Predicted median: 81.8%
Brain TSPO; dose 50 mg
  ROmax (%) Predicted 5 percentile: 78.7%
  ROmax (%) Predicted 95 percentile: 104.0%
  ROmax (%) Predicted median: 90.2%
  ROmin (%) Predicted 5 percentile: 74.1%
  ROmin (%) Predicted 95 percentile: 99.0%
  ROmin (%) Predicted median: 85.8%
Brain TSPO; dose 60 mg
  ROmax (%) Predicted 5 percentile: 78.8%
  ROmax (%) Predicted 95 percentile: 104.2%
  ROmax (%) Predicted median: 91.0%
  ROmin (%) Predicted 5 percentile: 75.0%
  ROmin (%) Predicted 95 percentile: 100.1%
  ROmin (%) Predicted median: 87.0%
Brain TSPO; dose 70 mg
  ROmax (%) Predicted 5 percentile: 79.4%
  ROmax (%) Predicted 95 percentile: 104.8%
  ROmax (%) Predicted median: 91.2%
  ROmin (%) Predicted 5 percentile: 76.4%
  ROmin (%) Predicted 95 percentile: 101.1%
  ROmin (%) Predicted median: 88.2%
Brain TSPO; dose 100 mg
  ROmax (%) Predicted 5 percentile: 80.1%
  ROmax (%) Predicted 95 percentile: 106.1%
  ROmax (%) Predicted median: 92.1%
  ROmin (%) Predicted 5 percentile: 77.6%
  ROmin (%) Predicted 95 percentile: 103.1%
  ROmin (%) Predicted median: 90.0%
[2]
  excessive emotional score compared with the vehicle control group: significantly lower
